From US7410975B2, “Small molecule toll-like receptor (TLR) antagonists” (Coley Pharmaceutical Group, Inc., priority 2003, dated 2008)

Target: T1, human TLR3 (hTLR3) (Homo sapiens, UniProt O15455)
T1 construct: expressed in transfected cells
T1 sequence (O15455 24-904): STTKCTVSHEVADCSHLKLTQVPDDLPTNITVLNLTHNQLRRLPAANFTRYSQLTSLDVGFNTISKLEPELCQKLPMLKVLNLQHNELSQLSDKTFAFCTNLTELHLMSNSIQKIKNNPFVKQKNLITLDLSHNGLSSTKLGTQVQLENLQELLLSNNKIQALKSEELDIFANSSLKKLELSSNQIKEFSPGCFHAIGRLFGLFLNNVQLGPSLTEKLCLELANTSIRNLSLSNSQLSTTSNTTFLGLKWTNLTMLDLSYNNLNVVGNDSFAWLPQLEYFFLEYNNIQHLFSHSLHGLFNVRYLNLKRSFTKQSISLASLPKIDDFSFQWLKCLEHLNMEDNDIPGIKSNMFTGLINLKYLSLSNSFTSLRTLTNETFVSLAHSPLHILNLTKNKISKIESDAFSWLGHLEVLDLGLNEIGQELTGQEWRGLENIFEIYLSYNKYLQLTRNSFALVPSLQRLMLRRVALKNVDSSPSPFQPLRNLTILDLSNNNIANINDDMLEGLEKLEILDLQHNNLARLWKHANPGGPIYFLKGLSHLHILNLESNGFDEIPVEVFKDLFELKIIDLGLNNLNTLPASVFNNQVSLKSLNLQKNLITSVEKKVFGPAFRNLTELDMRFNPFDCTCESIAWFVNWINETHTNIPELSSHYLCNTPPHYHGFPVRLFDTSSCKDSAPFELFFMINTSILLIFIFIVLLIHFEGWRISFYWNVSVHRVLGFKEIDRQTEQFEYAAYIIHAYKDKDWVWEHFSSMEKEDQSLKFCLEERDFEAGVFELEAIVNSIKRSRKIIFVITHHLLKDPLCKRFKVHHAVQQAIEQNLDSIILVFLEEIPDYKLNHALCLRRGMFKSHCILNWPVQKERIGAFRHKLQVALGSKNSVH
Experiment: Antagonist screen, hTLR3-NFκB-293 cells, NF-κB-luciferase reporter, with EC50 of poly(I:C)
Format: cell-based
Conditions: compound at 0.5, 5, 50 μg/ml; EC50 concentration of poly(I:C); 16 h; NF-κB-luciferase
Procedure: The method is described in greater detail as follows. The cells for each individual cell clone (hTLR3-NFκB-293, hTLR7-NFκB-293, hTLR8-NFκB-293 and hTLR9-NFκB-293) were counted and seeded one day before the stimulation at 1.5×10^4 cells per well in 96-well cell culture plates. To become adherent the cells were incubated after seeding overnight at 37° C. in 5% CO2 humidified air.
The screen for each compound was performed at the same time for all of the receptors TLR3, TLR7, TLR8 and TLR9. Up to fifteen test compounds, each assayed in duplicate at each of three different final concentrations (0.5 μg/ml, 5 μg/ml, and 50 μg/ml), were used for 16 h cell stimulation on a single multiwell culture plate. A 4× final concentration master plate was created to prepare the different test compounds before they were added to the cells.
Controls were added as duplicates individually for each cell clone on the cell culture plate. Positive controls were used as follows (final concentrations): 50 μg/ml poly(I:C) for hTLR3-NFκB-293; 8 μM resiquimod (R848) for hTLR7-NFκB-293; 30 μM R848 for hTLR8-NFκB-293; and 2.5 μM CpG-ODN 2006 for hTLR9-NFκB-293. Media alone was used as negative control. After addition of controls and small molecules, the cell clones were additionally stimulated with the EC50 concentration of the appropriate receptor-specific ligand.
The mean value of wells H2 and H5 (each with cells and EC50 concentration of the appropriate receptor-specific ligand) divided by the mean of wells H3 and H6 (each with cells alone) yielded the baseline response (i.e., fold induction of luciferase activity) to EC50 concentration of the appropriate receptor-specific ligand.
After 16 h stimulation the supernatant was removed and the cells treated with lysis buffer and stored at −80° C. before measuring.
For each screen result a graphical documentation was performed.
The baseline result (measured with addition of the EC50 concentration of the receptor-specific ligand) for each cell culture plate was measured as described above. Antagonistic effects were measured by down regulation compared to the baseline. Antagonists were scored as follows: • 13: compounds for which there was clear down regulation at 0.5 μg/ml, 5 μg/ml, and 50 μg/ml; • 12: compounds for which there was clear down regulation at 5 μg/ml and 50 μg/ml; • 11: compounds for which there was clear down regulation only at 50 μg/ml; • —: compounds for which there was no clear down regulation even at 50 μg/ml. Agonists
Results were expressed as fold induction over baseline luciferase activity measured in the absence of poly(I:C). […] Additional screening was performed in like manner using additional small molecules selected from another library or specifically prepared for this purpose. Scoring is reported as above but as applied to TLR3.

Compound | hTLR3 (inhibitory effect, antagonist score)
O=C1c2ccccc2C(=O)c2c1ccc1c(=O)n(C3CCCCC3)[nH]c21 [compound 1015] | — (compounds for which there was no clear down regulation even at 50 μg/ml)
CCOC(=O)c1cc([N+](=O)[O-])cc2c1-c1ccc([N+](=O)[O-])cc1C2=C(C#N)C#N [compound 1039] | — (compounds for which there was no clear down regulation even at 50 μg/ml)
O=C1c2ccccc2C(=O)c2c1ccc1c(=O)n(-c3ccccc3)[nH]c21 [compound 1042] | 11 (compounds for which there was clear down regulation only at 50 μg/ml)
O=C(c1cccc2c1-c1ccccc1/C2=N\O)N1CCCCC1 [compound 1050] | 12 (compounds for which there was clear down regulation at 5 μg/ml and 50 μg/ml)
NC(=O)c1cccc2c1-c1ccccc1C2 [compound 1132] | 11 (compounds for which there was clear down regulation only at 50 μg/ml)
NC(=O)c1cc(N)c2c(c1N)C(=O)c1ccccc1C2=O [compound 1158] | — (compounds for which there was no clear down regulation even at 50 μg/ml)
CC(=O)Oc1cc(C)c(C2(c3cc(C(C)C)c(OC(C)=O)cc3C)OC(=O)c3ccccc32)cc1C(C)C [compound 1161] | 12 (compounds for which there was clear down regulation at 5 μg/ml and 50 μg/ml)
COC(=O)c1cccc(C(O)(c2ccccc2)c2ccccc2)c1S(=O)(=O)C(C)(C)C [compound 1187] | 12 (compounds for which there was clear down regulation at 5 μg/ml and 50 μg/ml)
CCOCCOC(=O)c1cc([N+](=O)[O-])cc2c1-c1c(cc([N+](=O)[O-])cc1[N+](=O)[O-])C2=C(C#N)C#N [compound 1241] | 11 (compounds for which there was clear down regulation only at 50 μg/ml)
CC1CCN(C(=O)c2cccc3c2-c2ccccc2C3=O)CC1 [compound 1243] | — (compounds for which there was no clear down regulation even at 50 μg/ml)
Cc1cccc(C2(c3cccc(C)c3)OC(=O)c3ccccc32)c1 [compound 1308] | 12 (compounds for which there was clear down regulation at 5 μg/ml and 50 μg/ml)
COCCCNC(=O)c1ccc2c(c1N)C(=O)c1ccccc1C2=O [compound 1337] | 11 (compounds for which there was clear down regulation only at 50 μg/ml)
O=C1Nc2ccccc2Oc2ccc([N+](=O)[O-])cc21 [compound 1352] | — (compounds for which there was no clear down regulation even at 50 μg/ml)
Flunarizinehydrochloride [compound 312] | 11 (compounds for which there was clear down regulation only at 50 μg/ml)
Maprotilinehydrochloride [compound 346] | 11 (compounds for which there was clear down regulation only at 50 μg/ml)
Metixene hydrochloride [compound 491] | 12 (compounds for which there was clear down regulation at 5 μg/ml and 50 μg/ml)
Prochlorperazinedimaleate [compound 399] | 12 (compounds for which there was clear down regulation at 5 μg/ml and 50 μg/ml)
Trifluoperazinedihydrochloride [compound 313] | — (compounds for which there was no clear down regulation even at 50 μg/ml)
